Laboratory results taken from patent US5047397A, “Linear analogs of atrial natriuretic peptides” (California Biotechnology Inc., priority 1988, dated 1991).
*1 amine or outer side, *2 acyl side, *3 side chain or, on linkers, in order; H or OH if unused. Where a SMILES comes first, the peptide text is derived from it. Where no end group is shown, it is not given here. [ ]: non-standard residue; d: D form. The star is where a group is joined. Acetyl(1-naphthyloxy) = O=C(COc1cccc2ccccc12)*; Acetyl(2-naphthyloxy) = O=C(COc1ccc2ccccc2c1)*; Acetyl(2-naphthyl) = O=C(Cc1ccc2ccccc2c1)*; Fmoc = O=C(OCC1c2ccccc2-c2ccccc21)*; NMeI = CC[C@H](C)[C@H](NC)C(=O)O; X1 = O=C(Cc1ccc(N[*:1])cc1)[*:2]; Met(O) = CS(=O)CC[C@H](N)C(=O)O; Nle = CCCC[C@H](N)C(=O)O; Orn = NCCC[C@H](N)C(=O)O; Inp = O=C(O)C1CCNCC1; X3 = CCC(C)CN*

These compounds were tested against T1, specific ANP receptor sites on BASM or BAE cells (Bos taurus, UniProt P10730) (assay: Competitive displacement receptor binding of (125I)-rANP(126-150) on cultured cells). Conditions: not given.
T1 construct: specific receptor sites on BASM or BAE cells; endogenous in cells; host or cells: cultured BASM and BAE cells
T1 sequence (P10730 42-537): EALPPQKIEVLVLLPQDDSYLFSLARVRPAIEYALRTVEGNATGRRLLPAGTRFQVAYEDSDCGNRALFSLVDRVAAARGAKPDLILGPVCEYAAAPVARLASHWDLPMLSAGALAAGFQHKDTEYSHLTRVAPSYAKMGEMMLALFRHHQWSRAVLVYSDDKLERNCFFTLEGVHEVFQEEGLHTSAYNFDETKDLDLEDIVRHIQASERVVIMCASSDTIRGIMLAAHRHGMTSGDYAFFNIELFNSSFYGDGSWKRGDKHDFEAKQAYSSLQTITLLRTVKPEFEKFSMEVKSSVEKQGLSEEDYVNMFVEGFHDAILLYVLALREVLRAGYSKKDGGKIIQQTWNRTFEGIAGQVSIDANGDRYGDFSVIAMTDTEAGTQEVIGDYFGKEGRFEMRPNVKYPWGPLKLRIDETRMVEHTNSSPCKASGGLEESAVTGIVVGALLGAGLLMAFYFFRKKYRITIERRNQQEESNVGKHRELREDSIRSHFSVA
Set-up: species or system bovine
From the text: Analogous "competitive displacement" receptor binding assays are considered commonplace in the art for examining specific ligand-receptor interactions.
Assuming these ANP analogs act at one or more ANP receptor sites, then increased receptor affinity should reflect increased biological potency.

Compound	receptor binding / activity as judged by Ki, in words
CC[C@H](C)[C@H](NC(=O)[C@H](CCCNC(=N)N)NC(=O)[C@H](CC(=O)O)NC(=O)[C@H](CC[S+](C)[O-])NC(=O)[C@H](CCCNC(=N)N)NC(=O)CNC(=O)CNC(=O)Cc1ccc2ccccc2c1)C(N)=O (stereo partly drawn) [AP515, (2-NA)--G--G--R--MSO--D--R--I--NH2] ({Acetyl(2-naphthyl)}-GGR[Met(O)]DRI-NH2)	very low, if any, activity
CC[C@H](C)[C@H](NC(=O)[C@H](CO)NC(=O)[C@H](CC(=O)O)NC(=O)[C@@H](NC(=O)[C@H](CCCNC(=N)N)NC(=O)CNC(=O)CNC(=O)Cc1ccc2ccccc2c1)[C@@H](C)CC)C(N)=O [AP516, (2-NA)--G--G--R--I--D--S--I--NH2] ({Acetyl(2-naphthyl)}-GGRIDSI-NH2)	very low, if any, activity
CCCC[C@H](NC(=O)CNC(=O)CNC(=O)Cc1ccc2ccccc2c1)C(=O)N[C@H](C(=O)N[C@@H](CC(=O)O)C(=O)N[C@@H](CCCNC(=N)N)C(=O)N[C@H](C(N)=O)[C@@H](C)CC)[C@@H](C)CC [AP514, (2-NA)--G--G--Nle--I--D--R--I--NH2] ({Acetyl(2-naphthyl)}-GG[Nle]IDRI-NH2)	very low, if any, activity

Same assay, conditions: concentration of unlabeled peptide displacing 50% of maximal binding of 0.5 nM (125I)-rANP(126-150); BASM or BAE cells

Compound	Ki(app)
CCC(C)CNC(=O)[C@H](CCCNC(=N)N)NC(=O)[C@H](CC(=O)O)NC(=O)[C@@H](NC(=O)[C@H](CCCNC(=N)N)NC(=O)CNC(=O)CNC(=O)Cc1ccc2ccccc2c1)[C@@H](C)CC (stereo partly drawn) [AP511, (2-NA)GGRIDRNHCH2CH(CH3)CH3 CH3] ({Acetyl(2-naphthyl)}-GGRIDR-X3)	84.7 nM
CC[C@H](C)[C@H](NC(=O)[C@H](CCCNC(=N)N)NC(=O)[C@H](CC(=O)O)NC(=O)[C@@H](NC(=O)[C@H](CCCNC(=N)N)NC(=O)C1CCN(C(=O)COc2ccc3ccccc3c2)CC1)[C@@H](C)CC)C(N)=O [AP793] ({Acetyl(2-naphthyloxy)-Inp}-RIDRI-NH2)	76.8 nM
CC[C@H](C)[C@H](NC(=O)[C@H](CCCNC(=N)N)NC(=O)[C@H](CC(=O)O)NC(=O)[C@H](CC[S+](C)[O-])NC(=O)[C@H](CCCNC(=N)N)NC(=O)CNC(=O)CNC(=O)Cc1ccc2ccccc2c1)C(N)=O (stereo partly drawn) [AP515, (2-NA)--G--G--R--MSO--D--R--I--NH2] ({Acetyl(2-naphthyl)}-GGR[Met(O)]DRI-NH2)	> 400 nM
CC[C@H](C)[C@H](NC(=O)[C@H](CO)NC(=O)[C@H](CC(=O)O)NC(=O)[C@@H](NC(=O)[C@H](CCCNC(=N)N)NC(=O)CNC(=O)CNC(=O)Cc1ccc2ccccc2c1)[C@@H](C)CC)C(N)=O [AP516, (2-NA)--G--G--R--I--D--S--I--NH2] ({Acetyl(2-naphthyl)}-GGRIDSI-NH2)	399 nM
AFGGRIDRIGY-NH2 [AP176, A--F--G--G--R--I--D--R--I--G--Y--NH2]	6.65 nM
CC[C@H](C)[C@H](NC(=O)[C@H](CCCNC(=N)N)NC(=O)[C@H](CC(=O)O)NC(=O)[C@@H](NC(=O)[C@H](CCCNC(=N)N)NC(=O)CNC(=O)CNC(=O)COc1cccc2ccccc12)[C@@H](C)CC)C(N)=O [AP316, (1-NOA)--G--G--R--I--D--R--I--NH2] ({Acetyl(1-naphthyloxy)}-GGRIDRI-NH2)	50.4 nM
CC[C@H](C)[C@H](NC(=O)[C@H](CCCNC(=N)N)NC(=O)[C@H](CC(=O)O)NC(=O)[C@@H](NC(=O)[C@H](CCCNC(=N)N)NC(=O)CNC(=O)[C@@H](CO)NC(=O)Cc1ccc2ccccc2c1)[C@@H](C)CC)C(N)=O [AP330, (2-NA)--S^ --G--R--I--D--R--I--NH2] ({Acetyl(2-naphthyl)}-[dS]GRIDRI-NH2)	16.4 nM
CCCC[C@H](NC(=O)CNC(=O)CNC(=O)Cc1ccc2ccccc2c1)C(=O)N[C@H](C(=O)N[C@@H](CC(=O)O)C(=O)N[C@@H](CCCNC(=N)N)C(=O)N[C@H](C(N)=O)[C@@H](C)CC)[C@@H](C)CC [AP514, (2-NA)--G--G--Nle--I--D--R--I--NH2] ({Acetyl(2-naphthyl)}-GG[Nle]IDRI-NH2)	267.0 nM
CC[C@H](C)[C@H](NC(=O)[C@H](CCCNC(=N)N)NC(=O)CNC(=O)CNC(=O)[C@H](Cc1ccccc1)NC(=O)[C@H](C)N)C(=O)N[C@@H](CC(=O)O)C(=O)N[C@H](CCCNC(=N)N)C(=O)N[C@H](C(=O)NCC(=O)N[C@@H](C)C(N)=O)[C@@H](C)CC [AP304, A--F--G--G--R--I--D--R^ --I--G--A--NH2] (H-AFGGRID[dR]IGA-NH2)	95.6 nM
CC[C@H](C)[C@H](NC(=O)[C@H](CCCNC(=N)N)NC(=O)[C@H](CC(=O)O)NC(=O)[C@@H](NC(=O)[C@H](CCCNC(=N)N)NC(=O)CNC(=O)CNC(=O)OCC1c2ccccc2-c2ccccc21)[C@@H](C)CC)C(=O)NCC(=O)N[C@@H](C)C(N)=O [AP312, (FMOC)--G--G--R--I--D--R--I--G--A--NH2] (Fmoc-GGRIDRIGA-NH2)	6.27 nM
CC[C@H](C)[C@H](NC(=O)[C@H](CCCNC(=N)N)NC(=O)[C@H](CC(=O)O)NC(=O)[C@@H](NC(=O)[C@H](CCCN)NC(=O)Cc1ccc(NC(=O)COc2ccc3ccccc3c2)cc1)[C@@H](C)CC)C(N)=O [AP815] ({Acetyl(2-naphthyloxy)}-[X1][Orn]IDRI-NH2)	10.0 nM
CCNC(=O)CNC(=O)[C@H]([C@@H](C)CC)N(C)C(=O)[C@H](CCCNC(=N)N)NC(=O)[C@H](CC(=O)O)NC(=O)[C@@H](NC(=O)[C@H](CCCNC(=N)N)NC(=O)CNC(=O)CNC(=O)Cc1ccc2ccccc2c1)[C@@H](C)CC [AP529] ({Acetyl(2-naphthyl)}-GGRIDR[NMeI]G-NHEt)	87.3 nM
